Laboratory results published in patent US9440969B2, “Compounds and methods for kinase modulation, and indications therefor” (PLEXXIKON INC., priority 2009, dated 2016).

Key:
c-Raf-1 = c-Raf-1 (Homo sapiens, UniProt P04049); experiment: c-Raf-1 kinase activity assay (AlphaScreen, biotin-MEK1 substrate); details: 100 μM ATP, 100 nM biotin-MEK1, 45 minutes at room temperature; read-out: Biochemical activity (IC50 μM) c-Raf-1
Protocol: (§1) Assays for biochemical and cell based activity are known in the art, for example, as described in PCT publication WO 2007/002433, the disclosure of which is hereby incorporated by reference as it relates to such assays. For example, the biochemical activity IC50 values are determined with respect to inhibition of B-Raf kinase activity, c-Raf-1 kinase activity, or B-Raf V600E kinase activity, where inhibition of phosphorylation of a peptide substrate is measured as a function of compound concentration. Compounds to be tested are diluted in dimethyl sulfoxide to a concentration of 0.1 mM. These are serially diluted 15 μL into 30 μL of dimethyl sulfoxide seven times in 96 well plates for a total of 8 dilution points, and for each dilution point 1 μL is added to a well of an assay plate. Plates are prepared such that each well in a 384 well plate contains 1 μL of compound in 10 μL, volume with 0.1 ng Raf enzyme (i.e. any of B-Raf, c-Raf-1 or B-Raf V600E, Upstate Biotechnology or prepared by methods known to one of skill in the art), 50 mM HEPES, pH 7.0, 50 mM NaCl, 2 mM MgCl2, 1 mM MnCl2, 0.01% Tween-20, 1 mM DTT, and 100 nM biotin-MEK1 as substrate. The reaction is started with addition of 10 μL of 200 μM ATP (i.e. final 100 μM ATP). After incubation of the kinase reaction for 45 minutes at room temperature, 5 μL/well of Stop Solution is added (25 mM Hepes pH 7.5, 100 mM EDTA, 0.01% BSA with donor beads (Streptavidin coated beads, Perkin Elmer), acceptor beads (Protein A coated, Perkin Elmer), and anti phosphor MEK1/2 antibody (CellSignal), each at final concentration 10 μg/mL). The plates are incubated for 3 hours at room temperature and read on Envision reader (Perkin Elmer). Phosphorylation of Mek1 results in binding of the anti-phosphor-MEK1/2 antibody and association of the donor and acceptor beads such that signal correlates with kinase activity. The signal vs. compound concentration is used to determine the IC50.

B-Raf = B-Raf (Homo sapiens, UniProt P15056); experiment: B-Raf kinase activity assay (AlphaScreen, biotin-MEK1 substrate); details: 100 μM ATP, 100 nM biotin-MEK1, 45 minutes at room temperature; read-out: Biochemical activity (IC50 μM) B-Raf
Protocol: as §1

B-Raf V600E = B-Raf V600E (Homo sapiens, UniProt P15056, V600E); experiment: B-Raf V600E kinase activity assay (AlphaScreen, biotin-MEK1 substrate); details: 100 μM ATP, 100 nM biotin-MEK1, 45 minutes at room temperature, read-out: Biochemical activity (IC50 μM) V600E
Protocol: as §1

[1] = Relative solubility by turbidity in aqueous buffers (pH 1.5, 4.5, 6.8, 7.4); type: physicochemical; details: for turbidity threshold (L, M, H) 1.4: pH 1.5 buffer (SGF); for turbidity threshold (L, M, H) 4.5: pH 4.5 buffer (SIF); for turbidity threshold (L, M, H) 6.8: pH 6.8 buffer (SIF); for turbidity threshold (L, M, H) 7.4: pH 7.4 buffer (HEPES)
Protocol: As an indication of relative solubility, the turbidity of compounds in aqueous solutions is assessed. To assess possible compound properties in different physiological compartments, such as stomach, intestine, and blood, a series of aqueous buffers with varying pH is used. Thus each compound is diluted into four different physiologically relevant buffers and solution turbidity is measured by spectrophotometry.
Compounds are dissolved at a concentration of 25 mM in dimethyl sulfoxide, then serially diluted 1:1 into a 96 well plate, diluting 10 times in pure dimethyl sulfoxide, with the final well of each row a dimethyl sulfoxide blank. In an assay plate, 99 μL of appropriate buffer is added to each well, and 1 μL of each sample dilution is added to the buffer, achieving a range of final total concentrations in aqueous solutions having different pH. The buffers used are Simulated Gastric Fluid (SGF-pH 1.5) 0.5M NaCl, pH 1.5; Simulated Intestinal fluid (SIF-pH 4.5 and pH 6.8) 0.05M NaH2PO4, pH 4.5 and 6.8; and Hepes Buffer (HEPES-pH 7.4) 10 mM HEPES, 150 mM NaCl, pH 7.4. Control compounds pyrene, estriol and propranolol HCl are also assessed. Plates are spun and then mixed for 1 minute, and the absorbance is read using a Tecan Safire II to read wavelengths in the visible range (490, 535, and 650 nm) at four locations per well, reflecting the degree of turbidity present. The average optical density for each wavelength in each well is graphed vs. compound concentration, and the concentration at which the curve crosses a threshold O.D. of 0.01 for each wavelength is reported as the endpoint turbidity assay result. The average of the three wavelengths is used to compare turbidity of compounds. Compounds are considered to have low solubility if the threshold concentration is <31.3 μM, moderate solubility if the threshold concentration is 31.3 μM to 250 μM, and high solubility if the threshold concentration is >250 μM.
The following table indicates the relative solubility (L=low, M=moderate, H=high) based on turbidity threshold concentration at each pH for exemplary compounds according to the invention: […]

Sequence of B-Raf V600E (P15056 whole entry V600E): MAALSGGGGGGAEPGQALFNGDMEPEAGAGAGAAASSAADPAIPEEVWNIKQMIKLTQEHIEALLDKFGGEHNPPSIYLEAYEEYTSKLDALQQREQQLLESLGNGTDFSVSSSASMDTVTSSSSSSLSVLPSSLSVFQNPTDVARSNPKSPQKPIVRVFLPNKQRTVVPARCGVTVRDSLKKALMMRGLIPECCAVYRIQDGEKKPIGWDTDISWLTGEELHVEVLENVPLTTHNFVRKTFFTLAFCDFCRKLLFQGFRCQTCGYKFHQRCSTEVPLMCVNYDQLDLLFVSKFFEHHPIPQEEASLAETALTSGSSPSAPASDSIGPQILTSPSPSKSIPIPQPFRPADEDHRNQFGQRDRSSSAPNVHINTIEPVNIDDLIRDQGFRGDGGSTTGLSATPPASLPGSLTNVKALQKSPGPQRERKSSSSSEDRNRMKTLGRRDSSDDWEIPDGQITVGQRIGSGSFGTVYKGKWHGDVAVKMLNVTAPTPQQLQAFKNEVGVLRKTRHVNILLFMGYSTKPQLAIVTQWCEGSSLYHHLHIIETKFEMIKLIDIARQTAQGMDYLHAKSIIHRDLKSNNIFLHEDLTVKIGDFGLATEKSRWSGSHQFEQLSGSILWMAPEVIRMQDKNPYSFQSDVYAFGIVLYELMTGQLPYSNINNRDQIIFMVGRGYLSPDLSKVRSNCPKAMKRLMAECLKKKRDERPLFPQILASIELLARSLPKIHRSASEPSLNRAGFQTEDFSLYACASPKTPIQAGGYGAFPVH
Sequence of c-Raf-1 (P04049 whole entry Y340D/Y341D, form open): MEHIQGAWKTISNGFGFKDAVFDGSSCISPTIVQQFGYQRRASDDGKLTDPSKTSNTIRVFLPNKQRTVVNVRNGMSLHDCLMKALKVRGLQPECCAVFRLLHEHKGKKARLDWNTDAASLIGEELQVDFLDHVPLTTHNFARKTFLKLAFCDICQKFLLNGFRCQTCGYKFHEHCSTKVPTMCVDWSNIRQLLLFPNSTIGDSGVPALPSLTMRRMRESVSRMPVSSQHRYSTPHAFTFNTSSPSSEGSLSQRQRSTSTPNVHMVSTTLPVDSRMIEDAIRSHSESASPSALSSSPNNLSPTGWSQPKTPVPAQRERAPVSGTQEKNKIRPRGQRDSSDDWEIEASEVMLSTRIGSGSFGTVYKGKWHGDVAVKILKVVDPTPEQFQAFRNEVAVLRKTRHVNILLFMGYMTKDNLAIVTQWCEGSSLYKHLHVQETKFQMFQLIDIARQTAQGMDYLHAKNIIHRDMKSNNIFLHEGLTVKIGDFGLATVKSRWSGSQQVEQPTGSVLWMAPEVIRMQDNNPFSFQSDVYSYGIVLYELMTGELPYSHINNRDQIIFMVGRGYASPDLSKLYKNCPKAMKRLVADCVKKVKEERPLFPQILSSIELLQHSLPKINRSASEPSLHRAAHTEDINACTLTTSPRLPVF
Sequence of B-Raf (P15056 whole entry): as the sequence (P15056 whole entry V600E) above, with E600V counted along it

SMILES	IC50 (c-Raf-1) [µM]	IC50 (B-Raf) [µM]	IC50 (B-Raf V600E) [µM]	turbidity threshold (L, M, H) 1.4 [1]	turbidity threshold (L, M, H) 4.5 [1]	turbidity threshold (L, M, H) 6.8 [1]	turbidity threshold (L, M, H) 7.4 [1]
Cc1cc(-c2cnc3[nH]cc(C(=O)c4c(F)ccc(NS(=O)(=O)c5cc(F)ccc5F)c4F)c3c2)n(C)n1 [P-1010, N-{3-[5-(2,5-Dimethyl-2H-pyrazol-3-yl)-1H-pyrrolo[2,3-b]pyridine-3-carbonyl]-2,4-difluoro-phenyl}-2,5-difluoro-benzenesulfonamide]	< 0.1	< 0.1	< 0.1	M (moderate solubility if the threshold concentration is 31.3 μM to 250 μM)	L (low solubility if the threshold concentration is <31.3 μM)	L (low solubility if the threshold concentration is <31.3 μM)	M (moderate solubility if the threshold concentration is 31.3 μM to 250 μM)
Cn1ccc(-c2cnc3[nH]cc(C(=O)c4c(F)ccc(NS(=O)(=O)c5cc(F)ccc5F)c4F)c3c2)n1 [P-1011, N-{2,4-Difluoro-3-[5-(1-methyl-1H-pyrazol-3-yl)-1H-pyrrolo[2,3-b]pyridine-3-carbonyl]-phenyl}-2,5-difluoro-benzenesulfonamide]	< 0.1	< 0.1	< 0.1	L (low solubility if the threshold concentration is <31.3 μM)	L (low solubility if the threshold concentration is <31.3 μM)	M (moderate solubility if the threshold concentration is 31.3 μM to 250 μM)	M (moderate solubility if the threshold concentration is 31.3 μM to 250 μM)
COc1ccc(-c2cnc3[nH]cc(C(=O)c4c(F)ccc(NS(=O)(=O)c5cc(F)ccc5F)c4F)c3c2)c(OC)n1 [P-1406, N-{3-[5-(2,6-Dimethoxy-pyridin-3-yl)-1H-pyrrolo[2,3-b]pyridine-3-carbonyl]-2,4-difluoro-phenyl}-2,5-difluoro-benzenesulfonamide]	< 0.1	< 0.1	< 0.1	L (low solubility if the threshold concentration is <31.3 μM)	L (low solubility if the threshold concentration is <31.3 μM)	L (low solubility if the threshold concentration is <31.3 μM)	L (low solubility if the threshold concentration is <31.3 μM)
CN(C)c1ccc(-c2cnc3[nH]cc(C(=O)c4c(F)ccc(NS(=O)(=O)c5cc(F)ccc5F)c4F)c3c2)cn1 [P-1409, N-{3-[5-(6-Dimethylamino-pyridin-3-yl)-1H-pyrrolo[2,3-b]pyridine-3-carbonyl]-2,4-difluoro-phenyl}-2,5-difluoro-benzenesulfonamide]	< 0.1	< 0.1	< 0.1	L (low solubility if the threshold concentration is <31.3 μM)	L (low solubility if the threshold concentration is <31.3 μM)	L (low solubility if the threshold concentration is <31.3 μM)	L (low solubility if the threshold concentration is <31.3 μM)
COc1ncc(-c2cnc3[nH]cc(C(=O)c4c(F)ccc(NS(=O)(=O)c5cc(F)ccc5F)c4F)c3c2)c(OC)n1 [P-1501, N-{3-[5-(2,4-Dimethoxy-pyrimidin-5-yl)-1H-pyrrolo[2,3-b]pyridine-3-carbonyl]-2,4-difluoro-phenyl}-2,5-difluoro-benzenesulfonamide]	< 0.1	< 0.1	< 0.1	L (low solubility if the threshold concentration is <31.3 μM)	L (low solubility if the threshold concentration is <31.3 μM)	L (low solubility if the threshold concentration is <31.3 μM)	L (low solubility if the threshold concentration is <31.3 μM)
CN(C)c1ncc(-c2cnc3[nH]cc(C(=O)c4c(F)ccc(NS(=O)(=O)c5cc(F)ccc5F)c4F)c3c2)cn1 [P-1502, N-{3-[5-(2-Dimethylamino-pyrimidin-5-yl)-1H-pyrrolo[2,3-b]pyridine-3-carbonyl]-2,4-difluoro-phenyl}-2,5-difluoro-benzenesulfonamide]	< 0.1	< 0.1	< 0.1	L (low solubility if the threshold concentration is <31.3 μM)	L (low solubility if the threshold concentration is <31.3 μM)	L (low solubility if the threshold concentration is <31.3 μM)	L (low solubility if the threshold concentration is <31.3 μM)
CONC(=O)c1cccc(-c2cnc3[nH]cc(C(=O)c4c(F)ccc(NS(=O)(=O)c5cc(F)ccc5F)c4F)c3c2)c1 [P-1704, 3-{3-[3-(2,5-Difluoro-benzenesulfonylamino)-2,6-difluoro-benzoyl]-1H-pyrrolo[2,3-b]pyridin-5-yl}-N-methoxy-benzamide]	< 0.1	< 0.1	< 0.1	L (low solubility if the threshold concentration is <31.3 μM)	L (low solubility if the threshold concentration is <31.3 μM)	L (low solubility if the threshold concentration is <31.3 μM)	L (low solubility if the threshold concentration is <31.3 μM)
CONC(=O)c1ccc(-c2cnc3[nH]cc(C(=O)c4c(F)ccc(NS(=O)(=O)c5cc(F)ccc5F)c4F)c3c2)cc1 [P-1705, 4-{3-[3-(2,5-Difluoro-benzenesulfonylamino)-2,6-difluoro-benzoyl]-1H-pyrrolo[2,3-b]pyridin-5-yl}-N-methoxy-benzamide]	< 0.1	< 0.1	< 0.1	M (moderate solubility if the threshold concentration is 31.3 μM to 250 μM)	L (low solubility if the threshold concentration is <31.3 μM)	L (low solubility if the threshold concentration is <31.3 μM)	L (low solubility if the threshold concentration is <31.3 μM)
